# Source: ChEMBL document CHEMBL6178014, “Discovery and Administration Optimization of Novel Selective CDK9 Inhibitor, 1-7a-B1, for Improved Pharmacokinetics and Antitumor Efficacy In Vivo” (J Med Chem, 2025)
# Active and inactive are the calls of the source. The rule behind the calls is not given here.
# Key:
# [1] = target: CDK9/cyclin T1 (Homo sapiens, UniProt P50750); experiment: Binding affinity to CDK9/cyclin T1 (unknown origin) assessed as dissociation constant by SPR analysis; assay type: protein-complex assay
# [2] = target: CDK4/Cyclin D3 (Homo sapiens, UniProt P11802); experiment: Inhibition of CDK4/cycD3 (unknown origin) by ADP-Glo assay; assay type: protein-complex assay
# [3] = tested on: PANC-1; experiment: Cytotoxicity against human PANC-1 cells assessed as cell viability incubated for 48 hrs by CCK8 assay; assay type: functional, cell-based
# [4] = tested on: NCI-H226; experiment: Cytotoxicity against human NCI-H226 cells assessed as cell viability incubated for 48 hrs by CCK8 assay; assay type: functional, cell-based
# [5] = tested on: NCM460; experiment: Cytotoxicity against human NCM460 cells assessed as cell viability incubated for 48 hrs by CCK8 assay; assay type: toxicity, cell-based; details: ncm460, 48 h
# [6] = tested on: HCT-116; experiment: Antiproliferative activity against human HCT-116 cells assessed as reduction in colony formation incubated for 14 days by crystal violet staining based analysis; assay type: functional, cell-based; details: dose 50-400 nM, time 14.0 day
# [7] = tested on: HCT-116; experiment: Induction of apoptosis in human HCT-116 cells assessed as increase in total apoptotic cells incubated for 48 hrs by Annexin V-FITC/PI staining based flow cytometry analysis; assay type: functional, cell-based; details: dose 100-400 nM
# [8] = tested on: HCT-116; experiment: Downregulation of Mcl-1 level in human HCT-116 cells at 200 to 400 nM incubated for 48 hrs by Western blot analysis; assay type: functional, cell-based; details: dose 200-400 nM
# [9] = tested on: HCT-116; experiment: Downregulation of Bcl-2 level in human HCT-116 cells at 200 to 400 nM incubated for 48 hrs by Western blot analysis; assay type: functional, cell-based; details: dose 200-400 nM
# [10] = tested on: HCT-116; experiment: Induction of apoptosis in human HCT-116 cells assessed as increase in PARP cleavage incubated for 48 hrs by Western blot analysis; assay type: functional, cell-based; details: dose 100-400 nM
# [11] = target: CYP1A2 (Homo sapiens, UniProt P05177); experiment: Inhibition of CYP1A2 in human liver microsome at 10 uM pre-incubated with compound for 10 mins in presence of NADPH-regenerating system by LC-MS/MS analysis relative to control; assay type: ADME; details: liver microsomes
# [12] = target: CYP3A4 (Homo sapiens, UniProt P08684); experiment: Inhibition of CYP3A4 in human liver microsome at 10 uM pre-incubated with compound for 10 mins in presence of NADPH-regenerating system by LC-MS/MS analysis relative to control; assay type: ADME; details: liver microsomes
# [13] = Cmax in Sprague-Dawley rat at 30 mg/kg, po measured after 24 hrs by LC-MS/MS analysis; assay type: ADME, organism-based; details: in vivo
# [14] = Cmax in Sprague-Dawley rat at 30 mg/kg, po as submicron emulsion measured after 24 hrs by LC-MS/MS analysis; assay type: ADME, organism-based; details: in vivo
# [15] = Oral bioavailability in Sprague-Dawley rat at 30 mg/kg as submicron emulsion measured after 24 hrs by LC-MS/MS analysis; assay type: ADME, organism-based; details: in vivo
# [16] = tested on: HCT-116; experiment: Antitumor activity against human HCT-116 cells xenografted in female BALB/c nu-nu mouse assessed as tumor growth inhibition at 20 mg/kg, po as submicron emulsion administered once daily for 3 weeks by vernier caliper analysis; assay type: functional, organism-based
# [17] = Toxicity in female BALB/c nu-nu mouse xenografted with human HCT-116 cells assessed as histopathological changes in lung at 40 mg/kg, po administered once daily for 3 weeks by H and E staining based analysis; assay type: organism-based; details: in vivo, 504 h
# [18] = Toxicity in female BALB/c nu-nu mouse xenografted with human HCT-116 cells assessed as histopathological changes in spleen at 20 mg/kg, po as submicron emulsion administered once daily for 3 weeks by H and E staining based analysis; assay type: organism-based; details: in vivo, 504 h
# [19] = Toxicity in female BALB/c nu-nu mouse xenografted with human HCT-116 cells assessed as histopathological changes in kidney at 20 mg/kg, po as submicron emulsion administered once daily for 3 weeks by H and E staining based analysis; assay type: organism-based; details: in vivo, 504 h
# [20] = tested on: HCT-116; experiment: Antitumor activity against human HCT-116 cells xenografted in female BALB/c nu-nu mouse assessed as downregulation of Bcl-2 mRNA expression at 40 mg/kg, po incubated for 48 hrs by qRT-PCR analysis; assay type: functional, organism-based
# CDK9/cyclin T1, sequence (O60563 whole entry): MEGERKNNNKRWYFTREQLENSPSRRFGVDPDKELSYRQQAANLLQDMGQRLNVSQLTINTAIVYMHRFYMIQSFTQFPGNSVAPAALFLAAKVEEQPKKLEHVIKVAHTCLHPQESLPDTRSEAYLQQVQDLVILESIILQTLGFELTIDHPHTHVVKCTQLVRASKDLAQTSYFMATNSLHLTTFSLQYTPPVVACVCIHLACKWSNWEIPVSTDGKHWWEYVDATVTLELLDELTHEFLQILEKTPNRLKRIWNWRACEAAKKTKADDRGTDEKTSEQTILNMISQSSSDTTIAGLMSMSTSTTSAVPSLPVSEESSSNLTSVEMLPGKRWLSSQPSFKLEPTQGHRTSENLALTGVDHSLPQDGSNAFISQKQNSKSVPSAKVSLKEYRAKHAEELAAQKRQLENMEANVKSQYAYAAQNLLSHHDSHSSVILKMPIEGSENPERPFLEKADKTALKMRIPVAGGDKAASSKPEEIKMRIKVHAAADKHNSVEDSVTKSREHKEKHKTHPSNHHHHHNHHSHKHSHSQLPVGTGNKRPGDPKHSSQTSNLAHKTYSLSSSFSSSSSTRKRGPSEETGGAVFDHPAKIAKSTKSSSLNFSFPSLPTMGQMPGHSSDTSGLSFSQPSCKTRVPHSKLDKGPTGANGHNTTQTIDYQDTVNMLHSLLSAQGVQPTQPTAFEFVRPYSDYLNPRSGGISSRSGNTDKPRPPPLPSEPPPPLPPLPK
# CDK9/cyclin T1, sequence (P50750 whole entry): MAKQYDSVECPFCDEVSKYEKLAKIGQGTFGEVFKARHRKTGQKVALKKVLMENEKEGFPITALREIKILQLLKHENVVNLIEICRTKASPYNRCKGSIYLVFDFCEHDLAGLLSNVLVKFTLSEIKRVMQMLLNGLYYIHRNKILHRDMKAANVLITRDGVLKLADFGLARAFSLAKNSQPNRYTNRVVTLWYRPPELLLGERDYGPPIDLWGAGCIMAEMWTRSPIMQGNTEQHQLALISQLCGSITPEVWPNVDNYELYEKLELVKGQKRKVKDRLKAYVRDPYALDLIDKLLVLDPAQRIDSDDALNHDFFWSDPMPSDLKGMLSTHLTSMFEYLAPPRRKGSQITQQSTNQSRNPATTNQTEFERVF
# CYP1A2, sequence (P05177 whole entry): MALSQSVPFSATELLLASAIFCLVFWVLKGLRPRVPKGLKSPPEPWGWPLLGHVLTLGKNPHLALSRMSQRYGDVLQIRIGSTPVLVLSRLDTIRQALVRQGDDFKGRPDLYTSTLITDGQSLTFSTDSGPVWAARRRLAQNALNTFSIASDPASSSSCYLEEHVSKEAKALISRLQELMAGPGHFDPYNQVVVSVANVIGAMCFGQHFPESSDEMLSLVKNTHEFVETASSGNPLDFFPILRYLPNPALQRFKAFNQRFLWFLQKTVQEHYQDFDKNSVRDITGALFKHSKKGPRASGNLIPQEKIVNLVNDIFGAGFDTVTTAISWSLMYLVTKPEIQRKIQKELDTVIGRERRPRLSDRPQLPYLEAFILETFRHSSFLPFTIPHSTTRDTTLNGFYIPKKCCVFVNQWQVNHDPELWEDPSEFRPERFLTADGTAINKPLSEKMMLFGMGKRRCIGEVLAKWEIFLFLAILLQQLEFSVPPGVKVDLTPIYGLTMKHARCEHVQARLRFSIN
# CYP3A4, sequence (P08684 whole entry): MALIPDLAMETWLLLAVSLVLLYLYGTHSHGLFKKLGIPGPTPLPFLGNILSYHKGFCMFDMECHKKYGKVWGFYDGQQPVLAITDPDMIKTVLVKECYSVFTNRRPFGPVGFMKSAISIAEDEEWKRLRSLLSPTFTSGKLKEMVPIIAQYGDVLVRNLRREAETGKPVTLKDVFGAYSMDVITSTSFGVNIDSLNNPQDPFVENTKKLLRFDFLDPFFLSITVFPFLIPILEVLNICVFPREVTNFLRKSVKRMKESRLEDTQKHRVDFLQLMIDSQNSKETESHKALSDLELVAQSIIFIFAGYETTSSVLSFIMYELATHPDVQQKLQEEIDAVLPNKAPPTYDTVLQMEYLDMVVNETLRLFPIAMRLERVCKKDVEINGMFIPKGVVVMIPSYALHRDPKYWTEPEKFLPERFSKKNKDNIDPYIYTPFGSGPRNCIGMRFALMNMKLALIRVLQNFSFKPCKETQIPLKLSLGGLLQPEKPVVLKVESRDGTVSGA
# CDK4/Cyclin D3, sequence (P11802 whole entry): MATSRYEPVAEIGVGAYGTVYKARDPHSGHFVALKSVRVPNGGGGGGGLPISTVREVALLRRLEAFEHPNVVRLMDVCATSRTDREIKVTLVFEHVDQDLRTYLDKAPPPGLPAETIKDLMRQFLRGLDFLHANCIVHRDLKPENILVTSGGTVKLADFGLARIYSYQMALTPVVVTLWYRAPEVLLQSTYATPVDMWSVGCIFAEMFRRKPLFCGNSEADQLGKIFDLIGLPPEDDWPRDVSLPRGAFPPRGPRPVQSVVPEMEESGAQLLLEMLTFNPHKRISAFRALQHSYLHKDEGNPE
# CDK4/Cyclin D3, sequence (P30281 whole entry, further chain): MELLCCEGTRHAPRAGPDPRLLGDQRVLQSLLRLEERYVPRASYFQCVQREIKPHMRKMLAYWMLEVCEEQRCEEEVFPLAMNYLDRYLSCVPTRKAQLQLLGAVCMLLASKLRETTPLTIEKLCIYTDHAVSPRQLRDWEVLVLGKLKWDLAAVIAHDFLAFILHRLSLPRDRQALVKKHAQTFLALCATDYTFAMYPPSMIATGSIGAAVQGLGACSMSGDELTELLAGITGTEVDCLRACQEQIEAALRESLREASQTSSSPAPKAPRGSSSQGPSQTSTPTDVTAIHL
compound,measurement,setting,value
CC(C)Oc1cc(F)ccc1-c1ccnc(NC(=O)Nc2cccc(C(=O)N3CCN(C)CC3)c2)c1,Kd,[1],8.87 µM
same,IC50,[2],1.82 µM
same,Activity,[3],Active
same,Activity,[4],Active
same,Activity,[5],Toxic
same,Activity,[6],Dose-dependent-effect
same,Activity,[7],Dose-dependent-effect
same,Activity,[8],Active
same,Activity,[9],Active
same,Activity,[10],Dose-dependent-effect
same,inhibition at 10 µM,[11],12.5%
same,inhibition at 10 µM,[12],5.2%
same,Cmax,[13],302 ng/mL
same,Cmax,[14],1020 ng/mL
same,bioavailability,[15],26.4%
same,Activity,[16],Active
same,Activity,[17],Non-toxic
same,Activity,[18],Non-toxic
same,Activity,[19],Non-toxic
same,Activity,[20],Active
